Patent US11524960B2, “Heterobicyclic inhibitors of MAT2A and methods of use for treating cancer” (AGIOS PHARMACEUTICALS, INC., priority 2018, dated 2022)

Columns and labels:
[1] = system: HCT116 MTAP−/−; assay: Inhibition of cellular proliferation (Cell Titer Glo), HCT116 MTAP−/−; type: cell-based, human; settings: Homo sapiens, HCT-116, 96 h, 4 days, IC50 score, read-out: 4 Day Relative Growth Inhibition (MTAP −/−; Example 277)
Outline: (§1)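 Isogenic HCT116 lines, MTAP+/+ and MTAP−/−, treated 24 h after plating with 10-point 3-fold compound dilutions including DMSO only, then grown 4 days at 37 °C/5% CO2. Cell Titer Glo ATP luminescence, blank-subtracted and normalised to 0.2% DMSO control, gave percent change in proliferation versus log concentration.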

[2] = system: HCT116 MTAP+/+; assay: Inhibition of cellular proliferation (Cell Titer Glo), HCT116 MTAP+/+; type: cell-based, human; settings: Homo sapiens, HCT-116, 96 h, 4 days, IC50 score, read-out: 4 Day Relative Growth Inhibition (MTAP +/+; Example 277)
Outline: as §1

[3] = system: SAM in HCT116 human colon carcinoma cell line engineered to delete the MTAP gene (MTAP −/−); assay: Cellular assay of target engagement (SAM) by LC-MS/MS; type: cell-based; settings: Homo sapiens, HCT-116, 72 h, IC50 score, read-out: Cell 72 h SAM Inhibition (MTAP −/−; Example 276)
Outline: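 MTAP-deleted HCT116 cells were dosed 24 h after plating with a 10-point 3-fold compound series in DMSO, then incubated 72 h at 37 °C/5% CO2. Cells were extracted in cold 80% methanol with acetic acid and d3-SAM internal standard. SAM was quantified by LC-MS/MS MRM (m/z 399.2→250.1).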

[4] = target: T1, MAT2A homodimer (Homo sapiens, UniProt P31153); assay: Biochemical assay: inhibition of MAT2A (phosphate release, PiColorLock Gold); settings: MAT2A IC50 score; read-out: Enzyme Inhibition (Example 275)
T1 construct: inferred from Ni sepharose purification and imidazole elution; made in house; host or cells: Sf9 insect cells, recombinant baculovirus (Bac to Bac, pFASTBAC1)
Outline: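 Baculovirus/Sf9-expressed, Ni-purified MAT2A at 4 µg/mL was preincubated with compound for 60 min at 25 °C in 50 mM Tris pH 8.0, 50 mM KCl, 15 mM MgCl2, 0.3 mM EDTA, 0.005% BSA. Substrate mix (500 μM ATP, 400 μM L-methionine) was added and the reaction ran 60 min at 25 °C. Phosphate released stoichiometrically with SAM was measured colorimetrically against a phosphate standard curve.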

T1 sequence (P31153 whole entry): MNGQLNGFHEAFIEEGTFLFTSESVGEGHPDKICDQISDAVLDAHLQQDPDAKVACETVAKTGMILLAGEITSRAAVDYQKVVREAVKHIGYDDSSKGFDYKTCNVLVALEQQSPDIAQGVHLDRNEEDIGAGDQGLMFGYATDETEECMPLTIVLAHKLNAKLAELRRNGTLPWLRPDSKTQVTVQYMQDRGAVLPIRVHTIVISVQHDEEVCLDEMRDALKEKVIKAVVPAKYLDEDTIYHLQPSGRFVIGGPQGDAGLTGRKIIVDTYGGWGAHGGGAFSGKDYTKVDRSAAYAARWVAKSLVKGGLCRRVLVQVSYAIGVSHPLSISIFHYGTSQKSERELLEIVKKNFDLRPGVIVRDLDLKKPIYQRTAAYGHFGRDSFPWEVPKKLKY

Row | Structure (SMILES) | IC50 [1] | IC50 [2] | IC50 [3] | IC50 [4]
1 | CCOc1ccc2cn(-c3ccc4nn(C)cc4c3)c(=O)c(-c3ccc(-c4c[nH]cn4)cc3)c2n1 [Example 224, 8-(4-(1H-imidazol-4-yl)phenyl)-2-ethoxy-6-(2-methyl-2H-indazol-5-yl)-1,6-naphthyridin-7(6H)-one] | > 10000 nM | > 10000 nM | 100 to 1000 nM | < 100 nM
2 | CCOc1cnc2cn(-c3ccc4ncccc4c3)c(=O)c(-c3ccc(Cl)cc3)c2n1 [Example 142-A] | 100 to 10000 nM | > 10000 nM | 100 to 1000 nM | < 100 nM
3 | Cn1cc2cc(-n3cc4ccc(NC5CC5)nc4c(-c4ccc(OC(F)F)cc4)c3=O)ccc2n1 [Example 242, 2-(cyclopropylamino)-8-(4-(difluoromethoxy)phenyl)-6-(2-methyl-2H-indazol-5-yl)-1,6-naphthyridin-7(6H)-one] | < 100 nM | > 10000 nM | < 100 nM | < 100 nM
4 | Cc1nc2ccc(-n3cc4cnc(NCC(F)(F)F)nc4c(-c4ccc(OC(F)F)cc4)c3=O)cc2s1 [Example 150, 8-(4-(difluoromethoxy)phenyl)-6-(2-methylbenzo[d]thiazol-6-yl)-2-((2,2,2-trifluoroethyl)amino)pyrido[4,3-d]pyrimidin-7(6H)-one] | 100 to 10000 nM | 100 to 10000 nM | < 100 nM | < 100 nM
5 | O=c1c(-c2ccc(OC(F)F)cc2)c2nc(NCC(F)(F)F)ncc2cn1-c1ccc2nccn2c1 [Example 157, 8-(4-(difluoromethoxy)phenyl)-6-(imidazo[1,2-a]pyridin-6-yl)-2-((2,2,2-trifluoroethyl)amino)pyrido[4,3-d]pyrimidin-7(6)-one] | 100 to 10000 nM | > 10000 nM | < 100 nM | < 100 nM
6 | O=c1c(-c2ccc(Br)cc2)c2nc(NCC(F)(F)F)ncc2cn1-c1ccc2ncccc2c1 [Example 180, 8-(4-bromophenyl)-6-(quinolin-6-yl)-2-((2,2,2-trifluoroethyl)amino)pyrido[4,3-d]pyrimidin-7(6H)-one] | < 100 nM | > 10000 nM | < 100 nM | < 100 nM
7 | O=c1c(-c2ccc(C3CC3)cc2)c2nc(NCC(F)(F)F)ncc2cn1-c1ccc2ncsc2c1 [Example 166, 6-(benzo[d]thiazol-6-yl)-8-(4-cyclopropylphenyl)-2-((2,2,2-trifluoroethyl)amino)pyrido[4,3-d]pyrimidin-7(6)-one] | < 100 nM | > 10000 nM | < 100 nM | < 100 nM
8 | COc1ccc(-c2c(=O)n(-c3ccc4ncccc4c3)cc3cnc(NCC(F)(F)F)nc23)cc1 [Example 181, 8-(4-methoxyphenyl)-6-(quinolin-6-yl)-2-((2,2,2-trifluoroethyl)amino)pyrido[4,3-d]pyrimidin-7(6H)-one] | 100 to 10000 nM | > 10000 nM | < 100 nM | < 100 nM
9 | CCOc1ccc2cn(-c3ccc4nn(C)cc4c3)c(=O)c(-c3ccc(Cl)cc3)c2n1 [Example 247, 8-(4-chlorophenyl)-2-ethoxy-6-(2-methyl-2H-indazol-5-yl)-1,6-naphthyridin-7(6H)-one] | < 100 nM | 100 to 10000 nM | < 100 nM | < 100 nM
10 | COc1ccc(-n2cc3ccc(OCC(F)(F)F)nc3c(-c3ccc(OC(F)F)cc3)c2=O)cc1 [Example 258, 8-(4-(difluoromethoxy)phenyl)-6-(4-methoxyphenyl)-2-(2,2,2-trifluoroethoxy)-1,6-naphthyridin-7(6H)-one] | 100 to 10000 nM | 100 to 10000 nM | < 100 nM | < 100 nM
11 | CCOc1ccc2cn(-c3ccc4nn(C)c(C)c4c3)c(=O)c(-c3ccc(Cl)cc3)c2n1 [Example 105-A] | < 100 nM | 100 to 10000 nM | < 100 nM | < 100 nM
12 | O=c1c(-c2ccc(OC(F)F)cc2)c2nc(NC3CC3)ncc2cn1-c1ccc2ncccc2c1 [Example 179, 2-(cyclopropylamino)-8-(4-(difluoromethoxy)phenyl)-6-(quinolin-6-yl)pyrido[4,3-d]pyrimidin-7(6)-one] | 100 to 10000 nM | > 10000 nM | 100 to 1000 nM | < 100 nM
13 | Cn1cc2cc(-n3cc4ncc(OCC(F)F)nc4c(-c4ccc(Cl)cc4)c3=O)ccc2n1 [Example 146-A] | < 100 nM | 100 to 10000 nM | < 100 nM | < 100 nM
14 | Cn1cnc2ccc(-n3cc4ccc(OCC(F)(F)F)nc4c(-c4ccc(C5CC5)nc4)c3=O)cc21 [Example 120-A] | < 100 nM | 100 to 10000 nM | < 100 nM | < 100 nM
15 | CCOc1ccc2cn(-c3ccc(OC)cc3)c(=O)c(-c3ccc(OC(F)F)cc3)c2n1 [Example 250, 8-(4-(difluoromethoxy)phenyl)-2-ethoxy-6-(4-methoxyphenyl)-1,6-naphthyridin-7(6H)-one] | < 100 nM | 100 to 10000 nM | < 100 nM | < 100 nM
16 | CCOc1ccc2cn(-c3ccc(OC)cc3)c(=O)c(-c3ccc(OC(F)(F)F)nc3)c2n1 [Example 121-A] | 100 to 10000 nM | 100 to 10000 nM | < 100 nM | < 100 nM
17 | CCOc1ccc2cn(-c3ccc4ncn(C)c4c3)c(=O)c(-c3ccc(OC(F)F)nc3)c2n1 [Example 229, 8-(6-(difluoromethoxy)pyridin-3-yl)-2-ethoxy-6-(1-methyl-1H-benzo[d]imidazol-6-yl)-1,6-naphthyridin-7(6H)-one] | < 100 nM | 100 to 10000 nM | < 100 nM | < 100 nM
18 | CCOc1ccc2cn(-c3ccc4nn(C)cc4c3)c(=O)c(-c3ccc(-c4nc[nH]n4)cc3)c2n1 [Example 222, 8-(4-(1H-1,2,4-triazol-3-yl)phenyl)-2-ethoxy-6-(2-methyl-2H-indazol-5-yl)-1,6-naphthyridin-7(6H)-one] | 100 to 10000 nM | > 10000 nM | < 100 nM | < 100 nM

Second part, the molecule after the results:

Row | IC50 [1] | IC50 [2] | IC50 [3] | IC50 [4] | Structure (SMILES)
19 | < 100 nM | 100 to 10000 nM | < 100 nM | < 100 nM | [2H]C([2H])([2H])Oc1ccc(-c2c(=O)n(-c3ccc4nn(C)cc4c3)cc3ccc(OCC)nc23)cc1 [Example 117-A]
20 | < 100 nM | 100 to 10000 nM | 100 to 1000 nM | < 100 nM | Cn1cnc2ccc(-n3cc4ccc(OCC(F)(F)F)nc4c(-c4ccc(OC(F)F)nc4)c3=O)cc21 [Example 127-A]
21 | < 100 nM | 100 to 10000 nM | < 100 nM | < 100 nM | Cc1ccc(-c2c(=O)n(-c3ccc4nn(C)cc4c3)cc3ccc(OCC(F)(F)F)nc23)cn1 [Example 130-A]
22 | < 100 nM | > 10000 nM | < 100 nM | < 100 nM | Cc1c2cc(-n3cc4cnc(NCC(F)(F)F)nc4c(-c4ccc(OC(F)F)cc4)c3=O)ccc2nn1C [Example 158, 8-(4-(difluoromethoxy)phenyl)-6-(2,3-dimethyl-2H-indazol-5-yl)-2-((2,2,2-trifluoroethyl)amino)pyrido[4,3-d]pyrimidin-7(6H)-one]
23 | < 100 nM | 100 to 10000 nM | < 100 nM | < 100 nM | CCOc1ccc2cn(-c3ccc4nn(C)cc4c3)c(=O)c(-c3ccc(OC(F)F)cc3)c2n1 [Example 251, 8-(4-(difluoromethoxy)phenyl)-2-ethoxy-6-(2-methyl-2H-indazol-5-yl)-1,6-naphthyridin-7(6H)-one]
24 | < 100 nM | > 10000 nM | < 100 nM | < 100 nM | CCOc1ccc2cn(-c3ccc4ncccc4c3)c(=O)c(-c3ccc(OC(F)F)nc3)c2n1 [Example 232, 8-(6-(difluoromethoxy)pyridin-3-yl)-2-ethoxy-6-(quinolin-6-yl)-1,6-naphthyridin-7(6H)-one]
25 | < 100 nM | 100 to 10000 nM | < 100 nM | < 100 nM | Cn1cc2cc(-n3cc4cnc(NCC(F)(F)F)nc4c(-c4ccc(OC(F)F)cc4)c3=O)ccc2n1 [Example 148, 8-(4-(difluoromethoxy)phenyl)-6-(2-methyl-2H-indazol-5-yl)-2-((2,2,2-trifluoroethyl)amino)pyrido[4,3-d]pyrimidin-7(6H)-one]
26 | < 100 nM | > 10000 nM | < 100 nM | < 100 nM | Cn1cc2cc(-n3cc4ccc(NCC(F)(F)F)nc4c(-c4ccc(OC(F)(F)F)cc4)c3=O)ccc2n1 [Example 211, 6-(2-methyl-2H-indazol-5-yl)-2-((2,2,2-trifluoroethyl)amino)-8-(4-(trifluoromethoxy)phenyl)-1,6-naphthyridin-7(6H)-one]
